We go through 20 molecules from PubChem BioAssay AID1250 (SRMLSC, 2008).

pIC50: −log10 of the molar value.

The subject of this assay is BSR cells, Bluetongue virus CPE, ATP luminescence, 72 h. As to the kind of experiment: antiviral protection against BTV-induced cell death – arbovirus, BSR cells, confirmation (AID 1250).
`COc1ccc(-c2csc(NC(=O)C3=NN(c4ccccc4)C(=O)CC3)n2)cc1`: the pIC50 (usually the IC50 on a negative log10 scale, so that one unit is a factor of ten) is 4.68.

Turning to `O=C(/C=C/c1ccccc1)Nc1scc(-c2ccccc2)c1C(=O)O`, the pIC50 was 5.51.

With `COc1ccc(-c2csc(NC(=O)c3ccco3)n2)cc1`, the pIC50 is 4.71.

Regarding `O=C(CSc1nc(-c2ccccc2)nc2c1Cc1ccccc1O2)Nc1ccc(C(=O)O)cc1`, the pIC50 was 4.76.

For the molecule `COc1ccc(CN(C(=O)c2cc3ccccc3oc2=O)C2CCCCC2)cc1OC`, the pIC50 was 4.78.

For the molecule `O=C(O)c1cccc(N/N=C/C2=C(Cl)c3cc(Cl)ccc3SC2)c1`, the pIC50 was 4.88.

Turning to `COc1cc(C(=O)Nc2nc(-c3ccc(C)cc3)cs2)ccc1OCC(=O)N1CCOCC1`, the pIC50 was 5.40.

With `Cn1c(-c2c(N)n(-c3ccccc3)c3nc4ccccc4nc23)nc2ccccc21`, the pIC50 is 5.62.

For the molecule `COc1ccc(/C=C/C(=O)Nc2ccccc2C(=O)O)cc1OC`, the negative-log IC50 (pIC50) was 5.32.

With `O=c1oc(-c2cc3ccccc3o2)nc2sc3c(c12)CCCC3`, the pIC50 was 5.34.

`CCCCCCc1cc2cc(C(=O)Nc3ccccc3OC)c(=O)oc2cc1O`: the pIC50 is 5.04.

For `CC(C)Cc1csc(NC(=O)c2ccccc2Cl)c1C(=O)O`, the pIC50 was 4.69.

`C=CCn1c(CNC(=O)c2cccs2)nnc1SCc1ccc(Cl)cc1Cl`: the pIC50 was 4.96.

On to `COc1ccc(Cn2c(C)c(C)c(C#N)c2NC(=O)Nc2cccc(C)c2)cc1`, for which the pIC50 was 5.12.

For `O=C(Nc1ccccc1)Nc1snnc1C(=O)Nc1cccc(O)c1`, the pIC50 was 4.72.

On to `COC(=O)c1ccccc1NC(=O)CN1CCC(n2nnc3cc(F)ccc32)CC1`, for which the pIC50 is 6.75.

With `CC(C(=O)Nc1ccccc1-c1ccccc1)N1CCN(S(=O)(=O)c2ccccc2)CC1` (stereo not given), the pIC50 was 5.85.

Consider `CCc1cc(C(=O)O)c(NC(=O)/C=C/c2ccc(OC)c(OC)c2)s1`, for which the pIC50 was 5.78.

For `O=c1[nH]n2c(=O)c3c([nH]c2c1N=Nc1cccc(C(F)(F)F)c1)CCCC3`, the pIC50 is 4.71.

As for `Cc1ccc(-c2csc(NC(=O)C3=NN(c4ccccc4)C(=O)CC3)n2)cc1`, the pIC50 is 4.96.
